How the values were obtained:
Format in all cases: in vivo
corn (Zea mays) [1] = assay: Test A postemergence, visual injury rating; details: 0 is no effect, 100 is complete control
Procedure, shortened: (§1)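 Compounds in non-phytotoxic solvent with surfactant applied as soil spray preemergence, or postemergence to plants 2-10 cm at one- to two-leaf stage, in loam/sand. After approximately 10 days in greenhouse, injury rated visually versus untreated controls, 0 (no effect) to 100 (complete control).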

[2] = test system: barnyardgrass (Echinochloa crus-galli); assay: Test A postemergence, visual injury rating; details: 0 is no effect, 100 is complete control
Procedure, shortened: as §1

[3] = test system: wheat (Triticum aestivum); assay: Test A postemergence, visual injury rating; details: 0 is no effect, 100 is complete control
Procedure, shortened: as §1

[4] = test system: morningglory (Ipomoea spp.); assay: Test A postemergence, visual injury rating; details: 0 is no effect, 100 is complete control
Procedure, shortened: as §1

[5] = test system: velvetleaf (Abutilon theophrasti); assay: Test A postemergence, visual injury rating; details: 0 is no effect, 100 is complete control
Procedure, shortened: as §1

[6] = test system: large (Lg) crabgrass (Digitaria sanguinalis); assay: Test A postemergence, visual injury rating; details: 0 is no effect, 100 is complete control
Procedure, shortened: as §1

[7] = test system: giant foxtail (Setaria faberii); assay: Test A postemergence, visual injury rating; details: 0 is no effect, 100 is complete control
Procedure, shortened: as §1

[8] = test system: pigweed (Amaranthus retroflexus); assay: Test A postemergence, visual injury rating; details: 0 is no effect, 100 is complete control
Procedure, shortened: as §1

corn (Zea mays) [9] = assay: Test A preemergence, visual injury rating; details: 0 to 100 scale (0 no effect, 100 complete control)
Procedure, shortened: as §1

[10] = test system: barnyardgrass (Echinochloa crus-galli); assay: Test A preemergence, visual injury rating; details: 0 to 100 scale (0 no effect, 100 complete control)
Procedure, shortened: as §1

[11] = test system: wheat (Triticum aestivum); assay: Test A preemergence, visual injury rating; details: 0 to 100 scale (0 no effect, 100 complete control)
Procedure, shortened: as §1

[12] = test system: morningglory (Ipomoea spp.); assay: Test A preemergence, visual injury rating; details: 0 to 100 scale (0 no effect, 100 complete control)
Procedure, shortened: as §1

[13] = test system: velvetleaf (Abutilon theophrasti); assay: Test A preemergence, visual injury rating; details: 0 to 100 scale (0 no effect, 100 complete control)
Procedure, shortened: as §1

[14] = test system: large (Lg) crabgrass (Digitaria sanguinalis); assay: Test A preemergence, visual injury rating; details: 0 to 100 scale (0 no effect, 100 complete control)
Procedure, shortened: as §1

[15] = test system: giant foxtail (Setaria faberii); assay: Test A preemergence, visual injury rating; details: 0 to 100 scale (0 no effect, 100 complete control)
Procedure, shortened: as §1

[16] = test system: pigweed (Amaranthus retroflexus); assay: Test A preemergence, visual injury rating; details: 0 to 100 scale (0 no effect, 100 complete control)
Procedure, shortened: as §1

[17] = test system: barnyardgrass (Echinochloa crus-galli); assay: Test B flooded paddy test, plant response rating; details: 250 g ai/ha; Flood; scale of 0 to 100 where 0 is no effect and 100 is complete control; 13 to 15 days
Procedure, shortened: (§2)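 Compound was added to standing water 3 cm above soil, flood maintained, and plants held in a greenhouse before visual scoring against controls at 13 to 15 days.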

[18] = test system: ducksalad (Heteranthera limosa); assay: Test B flooded paddy test, plant response rating; details: 250 g ai/ha; Flood; scale of 0 to 100 where 0 is no effect and 100 is complete control; 13 to 15 days
Procedure, shortened: as §2

[19] = test system: sedge, umbrella (small-flower umbrella sedge, Cyperus difformis); assay: Test B flooded paddy test, plant response rating; details: 250 g ai/ha; Flood; scale of 0 to 100 where 0 is no effect and 100 is complete control; 13 to 15 days
Procedure, shortened: as §2

rice (Oryza sativa) = assay: Test B flooded paddy test, plant response rating; details: 250 g ai/ha; Flood; scale of 0 to 100 where 0 is no effect and 100 is complete control; 13 to 15 days
Procedure, shortened: as §2

Row | Structure (SMILES) | Morningglory plant response rating (0 to 100 scale) ([4]; 500 g ai/ha) | Velvetleaf plant response rating (0 to 100 scale) ([5]; 500 g ai/ha) | Crabgrass, Large plant response rating (0 to 100 scale) ([6]; 500 g ai/ha) | Corn plant response rating (corn (Zea mays) [9]; 500 g ai/ha) | Wheat plant response rating ([11]; 500 g ai/ha) | Morningglory plant response rating ([12]; 500 g ai/ha) | Velvetleaf plant response rating ([13]; 500 g ai/ha) | Crabgrass, Large plant response rating ([14]; 500 g ai/ha) | Corn plant response rating (0 to 100 scale) (corn (Zea mays) [1]; 1000 g ai/ha) | Barnyardgrass plant response rating (0 to 100 scale) ([2]; 1000 g ai/ha) | Wheat plant response rating (0 to 100 scale) ([3]; 1000 g ai/ha) | Morningglory plant response rating (0 to 100 scale) ([4]; 1000 g ai/ha) | Crabgrass, Large plant response rating (0 to 100 scale) ([6]; 1000 g ai/ha) | Foxtail, Giant plant response rating (0 to 100 scale) ([7]; 1000 g ai/ha) | Pigweed plant response rating (0 to 100 scale) ([8]; 1000 g ai/ha) | Plant response rating, Barnyardgrass [17] | Plant response rating, Ducksalad [18] | Plant response rating, Sedge, Umbrella [19] | Plant response rating, Rice (rice (Oryza sativa)) | Corn plant response rating (corn (Zea mays) [9]; 1000 g ai/ha) | also measured
1 | O=C(NCC(F)(F)F)c1ccccc1Oc1ncc(Br)cn1 [Compound 27] | 0 | 0 | 0 | 0 | 0 | 0 | 0 | 0 |  |  |  |  |  |  |  |  |  |  |  |  | Corn plant response rating (0 to 100 scale) (corn (Zea mays) [1]; 500 g ai/ha): 0; Barnyardgrass plant response rating (0 to 100 scale) ([2]; 500 g ai/ha): 0; Wheat plant response rating (0 to 100 scale) ([3]; 500 g ai/ha): 0; Foxtail, Giant plant response rating (0 to 100 scale) ([7]; 500 g ai/ha): 0; Pigweed plant response rating (0 to 100 scale) ([8]; 500 g ai/ha): 0; Barnyardgrass plant response rating ([10]; 500 g ai/ha): 0; Foxtail, Giant plant response rating ([15]; 500 g ai/ha): 0; Pigweed plant response rating ([16]; 500 g ai/ha): 0
2 | O=C(NCC(F)(F)F)c1ccccc1Oc1ncc(Cl)cn1 [Compound 28, 2-[(5-chloro-2-pyrimidinyl)oxy]-N-(2,2,2-trifluoroethyl)benzamide] | 0 | 30 | 0 | 0 | 0 | 0 | 20 | 50 |  |  |  |  |  |  |  |  |  |  |  |  | plant injury at 500 g/ha (corn (Zea mays) [1]; Zea mays, post-emergence, 240 h, 500 g ai/ha, read-out: Corn plant response rating (0 to 100 scale)): 0%; pest or weed control at 500 g/ha ([2]; Echinochloa crus-galli, post-emergence, 240 h, 500 g ai/ha, read-out: Barnyardgrass plant response rating (0 to 100 scale)): 20%; plant injury at 500 g/ha ([3]; Triticum aestivum, post-emergence, 240 h, 500 g ai/ha, read-out: Wheat plant response rating (0 to 100 scale)): 0%; pest or weed control at 500 g/ha ([7]; Setaria faberi, post-emergence, 240 h, 500 g ai/ha, read-out: Foxtail, Giant plant response rating (0 to 100 scale)): 0%; pest or weed control at 500 g/ha ([8]; Amaranthus retroflexus, post-emergence, 240 h, 500 g ai/ha, read-out: Pigweed plant response rating (0 to 100 scale)): 20%; pest or weed control at 500 g/ha ([10]; Echinochloa crus-galli, pre-emergence, 240 h, 500 g ai/ha, read-out: Barnyardgrass plant response rating): 20%; pest or weed control at 500 g/ha ([15]; Setaria faberi, pre-emergence, 240 h, 500 g ai/ha, read-out: Foxtail, Giant plant response rating): 20%; pest or weed control at 500 g/ha ([16]; Amaranthus retroflexus, pre-emergence, 240 h, 500 g ai/ha, read-out: Pigweed plant response rating): 80%
3 | CC(C)ON=Cc1ccccc1Oc1ncc(Cl)cn1 [Compound 57] |  |  |  |  |  |  |  |  | 20 | 20 | 20 | 10 | 30 | 20 | 40 | 0 | 0 | 0 | 0 | 0 | Barnyardgrass plant response rating ([10]; 1000 g ai/ha): 50; Wheat plant response rating ([11]; 1000 g ai/ha): 0; Morningglory plant response rating ([12]; 1000 g ai/ha): 0; Velvetleaf plant response rating ([13]; 1000 g ai/ha): 20; Crabgrass, Large plant response rating ([14]; 1000 g ai/ha): 100; Foxtail, Giant plant response rating ([15]; 1000 g ai/ha): 90; Pigweed plant response rating ([16]; 1000 g ai/ha): 60
4 | CC(=NOCc1ccccc1)c1ccccc1Oc1ncc(Cl)cn1 [Compound 58] |  |  |  |  |  |  |  |  | 30 | 40 | 20 | 30 | 80 | 60 | 100 | 0 | 0 | 0 | 0 | 20 | Velvetleaf plant response rating (0 to 100 scale) ([5]; 1000 g ai/ha): 90; Barnyardgrass plant response rating ([10]; 1000 g ai/ha): 90; Wheat plant response rating ([11]; 1000 g ai/ha): 20; Morningglory plant response rating ([12]; 1000 g ai/ha): 0; Velvetleaf plant response rating ([13]; 1000 g ai/ha): 20; Crabgrass, Large plant response rating ([14]; 1000 g ai/ha): 100; Foxtail, Giant plant response rating ([15]; 1000 g ai/ha): 100; Pigweed plant response rating ([16]; 1000 g ai/ha): 50
